# Measured values published in PubChem BioAssay AID1259407 (Chemical Carcinogenesis Research Information System (CCRIS), 2018).
# Calls of active or inactive are those of the source. The rule behind the calls is not given here.
# System: CCRIS mutagenicity, Ames/micronucleus/aberration tests
# Experiment: CCRIS mutagenicity studies
compound,measurement,setting,value
Cc1c2ccccc2c(C)c2c1ccc1ccccc12,mutagenic call,"End Point: IN VITRO CHROMOSOMAL ABERRATIONS, Test System: CHL/IU CELLS, Metabolic Activation: RAT, LIVER, S-9, PHENOBARBITAL AND 5,6-BENZOFLAVONE",active; positive (structural changes)
same,mutagenic call,"End Point: IN VITRO MICRONUCLEUS, Test System: CHL/IU CELLS, Metabolic Activation: RAT, LIVER, S-9, PHENOBARBITAL AND 5,6-BENZOFLAVONE",active; positive
same,mutagenic call,"End Point: IN VITRO MICRONUCLEUS, Test System: CHO CELLS, Metabolic Activation: RAT, LIVER, S-9, AROCLOR 1254",active; positive
same,mutagenic call,"End Point: IN VITRO MICRONUCLEUS, Test System: V79 CELLS, Metabolic Activation: RAT, LIVER, S-9, AROCLOR 1254",active; positive
same,mutagenic call,"End Point: IN VIVO CHROMOSOMAL ABERRATIONS, Test System: MAMMARY GLAND CELLS, USING DUAL PROBE FISH, Species: RAT, Strain/Sex: SPRAGUE-DAWLEY/FEMALE, Route: INTRAGASTRIC",active; positive (hyperdiploidy and polyploidy)
same,mutagenic call,"End Point: IN VIVO MICRONUCLEUS, Test System: BLOOD ERYTHROCYTES, Species: MOUSE, Strain/Sex: CD-1/MALE, Route: ORAL",active; positive
same,mutagenic call,"End Point: IN VIVO MICRONUCLEUS, Test System: MAMMARY GLAND CELLS, Species: RAT, Strain/Sex: SPRAGUE-DAWLEY/FEMALE, Route: INTRAGASTRIC",inactive; negative
same,mutagenic call,"Test System: AMES SALMONELLA TYPHIMURIUM, Strain/Indicator: TA97, Metabolic Activation: NONE, Method: STANDARD PLATE",active; positive
same,mutagenic call,"Test System: AMES SALMONELLA TYPHIMURIUM, Strain/Indicator: TA97, Metabolic Activation: RAT, LIVER, S-9, PCB, Method: STANDARD PLATE",active; positive
same,mutagenic call,"Test System: AMES SALMONELLA TYPHIMURIUM, Strain/Indicator: TA98, Metabolic Activation: NONE, Method: SPIRAL ASSAY",active; positive
same,mutagenic call,"Test System: AMES SALMONELLA TYPHIMURIUM, Strain/Indicator: TA98, Metabolic Activation: RAT, LIVER, S-9, AROCLOR 1254, Method: SPIRAL ASSAY",active; positive
same,mutagenic call,"Test System: AMES SALMONELLA TYPHIMURIUM, Strain/Indicator: TA98, Metabolic Activation: RAT, LIVER, S-9, AROCLOR 1254, Method: STANDARD PLATE",active; positive
same,mutagenic call,"Test System: AMES SALMONELLA TYPHIMURIUM, Strain/Indicator: TA98, Metabolic Activation: RAT, LIVER, S-9, PCB, Method: STANDARD PLATE",active; positive
same,mutagenic call,"Test System: AMES SALMONELLA TYPHIMURIUM, Strain/Indicator: TA98, Method: STANDARD PLATE",active; positive
same,mutagenic call,"Test System: AMES SALMONELLA TYPHIMURIUM, Strain/Indicator: TA100, Metabolic Activation: MOUSE, LIVER, MICROSOMES, BENZO[E]PYRENE AND TCDD, Method: STANDARD PLATE",active; positive
same,mutagenic call,"Test System: AMES SALMONELLA TYPHIMURIUM, Strain/Indicator: TA100, Metabolic Activation: NONE, Method: SPIRAL ASSAY",active; positive
same,mutagenic call,"Test System: AMES SALMONELLA TYPHIMURIUM, Strain/Indicator: TA100, Metabolic Activation: RAT, INTACT HEPATOCYTES, AROCLOR 1254, Method: PREINCUBATION",active; positive
same,mutagenic call,"Test System: AMES SALMONELLA TYPHIMURIUM, Strain/Indicator: TA100, Metabolic Activation: RAT, LIVER, MICROSOMES, 3-METHYLCHOLANTHRENE, Method: PREINCUBATION",active; positive
same,mutagenic call,"Test System: AMES SALMONELLA TYPHIMURIUM, Strain/Indicator: TA100, Metabolic Activation: RAT, LIVER, MICROSOMES, SODIUM PHENOBARBITAL, Method: PREINCUBATION",active; positive
same,mutagenic call,"Test System: AMES SALMONELLA TYPHIMURIUM, Strain/Indicator: TA100, Metabolic Activation: RAT, LIVER, MICROSOMES, SUDAN III, Method: PREINCUBATION",active; positive
same,mutagenic call,"Test System: AMES SALMONELLA TYPHIMURIUM, Strain/Indicator: TA100, Metabolic Activation: RAT, LIVER, MICROSOMES, Method: PREINCUBATION",active; positive
same,mutagenic call,"Test System: AMES SALMONELLA TYPHIMURIUM, Strain/Indicator: TA100, Metabolic Activation: RAT, LIVER, S-9, AROCLOR 1254, Method: SPIRAL ASSAY",active; positive
same,mutagenic call,"Test System: AMES SALMONELLA TYPHIMURIUM, Strain/Indicator: TA100, Metabolic Activation: RAT, LIVER, S-9, AROCLOR 1254, Method: STANDARD PLATE",active; positive
same,mutagenic call,"Test System: AMES SALMONELLA TYPHIMURIUM, Strain/Indicator: TA100, Metabolic Activation: RAT, LIVER, S-9, EUGENOL, Method: PREINCUBATION",active; positive
same,mutagenic call,"Test System: AMES SALMONELLA TYPHIMURIUM, Strain/Indicator: TA100, Metabolic Activation: RAT, LIVER, S-9, KC500 OR PHENOBARBITAL, Method: LIQUID SUSPENSION",active; positive
same,mutagenic call,"Test System: AMES SALMONELLA TYPHIMURIUM, Strain/Indicator: TA100, Metabolic Activation: RAT, LIVER, S-9, PCB, Method: STANDARD PLATE",active; positive
same,mutagenic call,"Test System: AMES SALMONELLA TYPHIMURIUM, Strain/Indicator: TA100, Metabolic Activation: RAT, LIVER, S-9, PHENOBARBITAL, Method: STANDARD PLATE",active; positive
same,mutagenic call,"Test System: AMES SALMONELLA TYPHIMURIUM, Strain/Indicator: TA100, Metabolic Activation: RAT, LIVER, S-9, Method: PREINCUBATION",active; positive
same,mutagenic call,"Test System: AMES SALMONELLA TYPHIMURIUM, Strain/Indicator: TA100, Metabolic Activation: RAT, NADPH-FORTIFIED HOMOGENIZED HEPATOCYTES, AROCLOR 1254, Method: PREINCUBATION",active; positive
same,mutagenic call,"Test System: AMES SALMONELLA TYPHIMURIUM, Strain/Indicator: TA100, Metabolic Activation: RAT, SONICATED HEPATOCYTES, AROCLOR 1254, Method: PREINCUBATION",active; positive
same,mutagenic call,"Test System: AMES SALMONELLA TYPHIMURIUM, Strain/Indicator: TA100, Method: STANDARD PLATE",active; positive
same,mutagenic call,"Test System: AMES SALMONELLA TYPHIMURIUM, Strain/Indicator: TA1535, Metabolic Activation: NONE, Method: SPIRAL ASSAY",inactive; negative
same,mutagenic call,"Test System: AMES SALMONELLA TYPHIMURIUM, Strain/Indicator: TA1535, Metabolic Activation: NONE, Method: STANDARD PLATE",inactive; negative
